Experimental findings from ChEMBL document CHEMBL1201862, “PubChem BioAssay data set” (2004) are described below.

Assay type in all cases: functional
Experiment [1] concerns the target Melanin-concentrating hormone receptor 1 (Homo sapiens, UniProt Q99705). Briefly: Late-stage fluorescence-based counterscreen for antagonists of the G-protein coupled receptor 7 (GPR7): cell-based dose response assay to identify antagonists of the melanin-concentrating hormone receptor 1 (MCHR1) Set 6.
In experiment [2] the target is T1, Neuropeptides B/W receptor type 1 (Homo sapiens, UniProt P48145).
T1 sequence (P48145 whole entry): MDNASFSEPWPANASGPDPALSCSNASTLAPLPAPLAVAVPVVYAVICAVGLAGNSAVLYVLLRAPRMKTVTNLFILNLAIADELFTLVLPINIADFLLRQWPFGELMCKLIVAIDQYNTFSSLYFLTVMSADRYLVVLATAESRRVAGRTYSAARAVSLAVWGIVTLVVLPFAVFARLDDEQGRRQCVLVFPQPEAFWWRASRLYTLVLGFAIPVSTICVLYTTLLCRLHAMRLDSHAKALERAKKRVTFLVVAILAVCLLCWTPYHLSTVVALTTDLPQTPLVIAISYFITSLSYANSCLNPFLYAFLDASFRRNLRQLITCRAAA
Briefly: GPR7 antagonist potency, late-stage follow-up, cell-based, fluorescence, dose response, set 6 (AID 588583).

Experiment [3] has as its target Serine/threonine-protein kinase D2 (Homo sapiens, UniProt Q9BZL6).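 Further: measured against PRKD2 as one member of a kinome-wide kinase profiling panel.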
Experiment [4] concerns the target Calcium/calmodulin-dependent protein kinase kinase 2 (Homo sapiens, UniProt Q96RR4). Kind of experiment: Navigating the Kinome. Panel member name: CAMKK2.
Experiment [5] deals with cGMP-dependent protein kinase 1 (Homo sapiens, UniProt Q13976).
Experiment [6] has as its target Casein kinase I isoform delta (Homo sapiens, UniProt P48730).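 Further: measured as one member (CSNK1D) of a kinome panel.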
Experiment [7] has as its target RAC-alpha serine/threonine-protein kinase (Homo sapiens, UniProt P31749).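 Further: AKT1 affinity measured as one member of a kinome-wide kinase profiling panel.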
Experiment [8] has as its target Calcium/calmodulin-dependent protein kinase type II subunit beta (Homo sapiens, UniProt Q13554).
Experiment [9] addresses MAP kinase-activated protein kinase 5 (Homo sapiens, UniProt Q8IW41).
Experiment [10] addresses Casein kinase I isoform alpha (Homo sapiens, UniProt P48729).
The target of experiment [11] is Dual specificity tyrosine-phosphorylation-regulated kinase 4 (Homo sapiens, UniProt Q9NR20).
Chain of Dual specificity tyrosine-phosphorylation-regulated kinase 4 (Q9NR20 whole entry): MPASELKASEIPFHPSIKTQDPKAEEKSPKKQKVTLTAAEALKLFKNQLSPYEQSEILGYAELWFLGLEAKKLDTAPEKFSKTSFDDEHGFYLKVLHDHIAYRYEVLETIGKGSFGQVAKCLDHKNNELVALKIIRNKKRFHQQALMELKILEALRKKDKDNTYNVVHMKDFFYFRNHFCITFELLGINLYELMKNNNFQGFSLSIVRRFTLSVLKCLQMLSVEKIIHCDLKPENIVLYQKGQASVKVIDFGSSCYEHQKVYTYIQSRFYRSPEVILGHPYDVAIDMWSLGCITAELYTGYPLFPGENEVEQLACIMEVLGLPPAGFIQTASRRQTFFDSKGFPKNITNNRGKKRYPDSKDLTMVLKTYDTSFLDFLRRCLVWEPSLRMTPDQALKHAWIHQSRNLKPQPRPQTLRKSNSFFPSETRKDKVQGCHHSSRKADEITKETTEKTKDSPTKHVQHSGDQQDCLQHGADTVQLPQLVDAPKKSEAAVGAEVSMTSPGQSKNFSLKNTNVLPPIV
Experiment [12] addresses Dual specificity tyrosine-phosphorylation-regulated kinase 1B (Homo sapiens, UniProt Q9Y463). Kind of experiment: Navigating the Kinome. Panel member name: DYRK1B.
The target of experiment [13] is RAC-gamma serine/threonine-protein kinase (Homo sapiens, UniProt Q9Y243).
Experiment [14] addresses Serine/threonine-protein kinase pim-2 (Homo sapiens, UniProt Q9P1W9).
Experiment [15] concerns the target Homeodomain-interacting protein kinase 2 (Homo sapiens, UniProt Q9H2X6).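 Further: measured within a kinome-wide kinase profiling panel, HIPK2 being one panel member.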
Experiment [16] addresses Protein kinase C gamma type (Homo sapiens, UniProt P05129).
Experiment [17] addresses Mitogen-activated protein kinase 14 (Homo sapiens, UniProt Q16539).
The target in experiment [18] is Protein kinase C iota type (Homo sapiens, UniProt P41743).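 Further: measured within a kinome-wide kinase panel, PRKCI as panel member.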
Experiment [19] has as its target Serine/threonine-protein kinase pim-1 (Homo sapiens, UniProt P11309).
In experiment [20] the target is Cyclin-dependent kinase 9 (Homo sapiens, UniProt P50750).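 Further: value from the CDK9 entry of a kinome-spanning kinase panel.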
Experiment [21] has as its target T2, cAMP-dependent protein kinase catalytic subunit PRKX (Homo sapiens, UniProt P51817).
T2 sequence (P51817 whole entry): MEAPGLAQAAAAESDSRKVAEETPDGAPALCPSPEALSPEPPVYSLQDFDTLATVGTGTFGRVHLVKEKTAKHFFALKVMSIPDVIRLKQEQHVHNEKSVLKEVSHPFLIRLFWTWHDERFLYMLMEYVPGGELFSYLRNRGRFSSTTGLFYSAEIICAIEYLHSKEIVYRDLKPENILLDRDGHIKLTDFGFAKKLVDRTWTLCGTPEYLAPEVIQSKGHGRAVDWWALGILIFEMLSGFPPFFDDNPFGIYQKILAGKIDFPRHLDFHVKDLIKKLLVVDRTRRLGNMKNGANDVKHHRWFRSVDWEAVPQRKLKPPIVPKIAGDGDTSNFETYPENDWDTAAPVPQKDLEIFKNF

The target in experiment [22] is Serine/threonine-protein kinase pim-3 (Homo sapiens, UniProt Q86V86).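 Further: value obtained as one member of a broad kinase panel profiling effort.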

Molecules are shown by their SMILES. Active and inactive are the calls of the source.

Chain of Serine/threonine-protein kinase D2 (Q9BZL6 whole entry): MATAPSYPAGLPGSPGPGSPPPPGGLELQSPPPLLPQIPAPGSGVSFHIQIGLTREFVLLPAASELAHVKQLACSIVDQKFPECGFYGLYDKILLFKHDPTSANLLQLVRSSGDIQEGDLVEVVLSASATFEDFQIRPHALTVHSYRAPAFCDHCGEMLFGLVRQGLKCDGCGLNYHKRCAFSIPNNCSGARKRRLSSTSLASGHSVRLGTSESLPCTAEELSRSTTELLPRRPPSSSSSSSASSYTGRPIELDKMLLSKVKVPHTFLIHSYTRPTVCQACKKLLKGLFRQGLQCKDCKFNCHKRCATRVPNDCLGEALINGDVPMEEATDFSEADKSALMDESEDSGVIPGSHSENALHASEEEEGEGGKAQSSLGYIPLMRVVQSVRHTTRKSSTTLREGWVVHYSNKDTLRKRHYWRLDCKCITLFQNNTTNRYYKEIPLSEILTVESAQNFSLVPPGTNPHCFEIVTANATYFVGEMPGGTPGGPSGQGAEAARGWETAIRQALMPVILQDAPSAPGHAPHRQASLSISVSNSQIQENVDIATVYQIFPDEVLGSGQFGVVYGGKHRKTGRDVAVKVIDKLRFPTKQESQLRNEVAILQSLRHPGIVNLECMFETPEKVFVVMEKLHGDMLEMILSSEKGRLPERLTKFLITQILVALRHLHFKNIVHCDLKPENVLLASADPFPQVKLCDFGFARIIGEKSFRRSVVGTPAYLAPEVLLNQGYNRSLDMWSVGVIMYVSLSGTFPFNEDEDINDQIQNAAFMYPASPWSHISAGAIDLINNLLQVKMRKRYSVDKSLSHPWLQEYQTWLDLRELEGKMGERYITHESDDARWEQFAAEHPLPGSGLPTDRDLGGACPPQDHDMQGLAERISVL
Chain of Mitogen-activated protein kinase 14 (Q16539 whole entry): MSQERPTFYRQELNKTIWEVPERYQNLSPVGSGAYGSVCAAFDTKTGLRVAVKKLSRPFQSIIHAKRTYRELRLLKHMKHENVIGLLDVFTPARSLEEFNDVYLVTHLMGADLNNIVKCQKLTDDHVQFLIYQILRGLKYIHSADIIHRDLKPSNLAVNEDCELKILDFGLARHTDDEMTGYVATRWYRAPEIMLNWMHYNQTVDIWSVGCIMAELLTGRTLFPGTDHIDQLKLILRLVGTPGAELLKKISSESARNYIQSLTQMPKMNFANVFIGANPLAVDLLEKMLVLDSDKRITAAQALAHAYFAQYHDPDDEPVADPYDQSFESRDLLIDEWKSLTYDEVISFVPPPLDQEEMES
Chain of Calcium/calmodulin-dependent protein kinase kinase 2 (Q96RR4 whole entry): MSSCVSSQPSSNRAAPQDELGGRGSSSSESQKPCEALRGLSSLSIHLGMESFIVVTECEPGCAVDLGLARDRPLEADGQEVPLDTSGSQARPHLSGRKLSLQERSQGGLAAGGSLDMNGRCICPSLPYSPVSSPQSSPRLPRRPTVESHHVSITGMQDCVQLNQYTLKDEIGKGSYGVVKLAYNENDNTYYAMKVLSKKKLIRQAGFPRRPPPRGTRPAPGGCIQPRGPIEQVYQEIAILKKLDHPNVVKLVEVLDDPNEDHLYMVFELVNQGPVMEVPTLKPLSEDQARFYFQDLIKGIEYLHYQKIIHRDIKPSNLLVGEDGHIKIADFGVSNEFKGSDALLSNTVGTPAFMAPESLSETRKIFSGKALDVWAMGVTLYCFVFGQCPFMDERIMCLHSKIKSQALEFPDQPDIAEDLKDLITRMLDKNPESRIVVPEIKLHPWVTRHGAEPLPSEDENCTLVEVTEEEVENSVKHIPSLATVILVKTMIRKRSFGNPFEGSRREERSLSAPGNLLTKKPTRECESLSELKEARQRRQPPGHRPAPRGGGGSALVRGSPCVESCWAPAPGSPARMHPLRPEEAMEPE
Chain of Homeodomain-interacting protein kinase 2 (Q9H2X6 whole entry): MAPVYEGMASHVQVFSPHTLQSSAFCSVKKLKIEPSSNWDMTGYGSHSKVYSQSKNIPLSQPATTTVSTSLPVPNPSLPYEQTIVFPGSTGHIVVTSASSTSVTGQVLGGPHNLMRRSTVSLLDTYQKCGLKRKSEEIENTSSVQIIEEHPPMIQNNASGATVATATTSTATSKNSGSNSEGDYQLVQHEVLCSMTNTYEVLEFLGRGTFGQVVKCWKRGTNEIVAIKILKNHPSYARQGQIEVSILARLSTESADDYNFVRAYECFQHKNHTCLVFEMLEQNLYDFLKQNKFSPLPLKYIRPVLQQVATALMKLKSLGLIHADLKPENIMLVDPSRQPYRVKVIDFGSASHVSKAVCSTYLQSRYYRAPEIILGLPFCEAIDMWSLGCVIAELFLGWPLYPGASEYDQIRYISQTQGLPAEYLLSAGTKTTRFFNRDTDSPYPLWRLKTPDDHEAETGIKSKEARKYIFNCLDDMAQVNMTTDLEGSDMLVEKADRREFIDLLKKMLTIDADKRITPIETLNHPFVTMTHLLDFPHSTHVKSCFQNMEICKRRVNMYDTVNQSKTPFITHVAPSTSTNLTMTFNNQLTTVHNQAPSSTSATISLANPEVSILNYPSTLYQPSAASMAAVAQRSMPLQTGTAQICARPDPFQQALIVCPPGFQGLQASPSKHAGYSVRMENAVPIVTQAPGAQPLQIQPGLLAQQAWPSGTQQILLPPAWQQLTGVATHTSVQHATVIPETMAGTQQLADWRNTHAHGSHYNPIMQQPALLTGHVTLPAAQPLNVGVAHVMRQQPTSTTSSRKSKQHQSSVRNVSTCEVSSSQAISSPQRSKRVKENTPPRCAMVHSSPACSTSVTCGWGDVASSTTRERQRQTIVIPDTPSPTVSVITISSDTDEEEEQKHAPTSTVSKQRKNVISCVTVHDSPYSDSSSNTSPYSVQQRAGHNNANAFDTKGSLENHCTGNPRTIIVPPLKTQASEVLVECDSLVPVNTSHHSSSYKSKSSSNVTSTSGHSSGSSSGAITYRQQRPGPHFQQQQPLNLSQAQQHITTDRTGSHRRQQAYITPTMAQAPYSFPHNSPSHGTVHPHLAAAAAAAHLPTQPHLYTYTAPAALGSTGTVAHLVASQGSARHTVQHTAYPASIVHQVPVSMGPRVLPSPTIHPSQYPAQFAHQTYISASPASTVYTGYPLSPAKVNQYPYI
Chain of Casein kinase I isoform alpha (P48729 whole entry, canonical isoform): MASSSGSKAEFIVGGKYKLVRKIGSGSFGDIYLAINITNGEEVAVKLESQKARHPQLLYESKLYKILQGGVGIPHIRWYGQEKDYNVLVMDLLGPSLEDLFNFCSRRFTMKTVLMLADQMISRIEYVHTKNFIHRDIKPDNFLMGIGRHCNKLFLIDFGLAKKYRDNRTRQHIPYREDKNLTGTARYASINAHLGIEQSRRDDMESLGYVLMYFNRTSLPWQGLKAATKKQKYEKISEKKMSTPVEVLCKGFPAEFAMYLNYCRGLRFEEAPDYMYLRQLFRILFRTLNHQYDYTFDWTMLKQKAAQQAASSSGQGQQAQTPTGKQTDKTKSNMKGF
Chain of Serine/threonine-protein kinase pim-1 (P11309 whole entry): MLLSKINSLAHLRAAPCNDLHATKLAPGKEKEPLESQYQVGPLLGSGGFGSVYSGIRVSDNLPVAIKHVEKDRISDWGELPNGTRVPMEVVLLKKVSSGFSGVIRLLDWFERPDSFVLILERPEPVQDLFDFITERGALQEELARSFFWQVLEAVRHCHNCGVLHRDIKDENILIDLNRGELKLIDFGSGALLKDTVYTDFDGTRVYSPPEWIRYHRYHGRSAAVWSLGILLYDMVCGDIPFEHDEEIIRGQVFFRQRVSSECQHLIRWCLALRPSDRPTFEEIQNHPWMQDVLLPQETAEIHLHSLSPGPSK

On to `N#CC(c1ccc(C(F)(F)F)cc1)c1c(Cl)cnn(Cc2cccc3ccccc23)c1=O` (configuration not stated), for which the IC50 in [1] and in experiment [2] was 699 nM (active) each time.

For `COc1cc(Nc2ncc(F)c(Nc3ccc4c(n3)NC(=O)C(C)(C)O4)n2)cc(OC)c1OC` [R-406], the Ki in [3] was 631 nM (active); in experiment [4] it was > 2510 nM (inactive); in experiment [5] it was > 2000 nM (inactive); in [6], > 7940 nM (inactive); in [7], > 7940 nM (inactive); in [8], > 7940 nM (inactive). The Ki in [9] is > 1580 nM (inactive); in experiment [10], > 5010 nM (inactive); in [11], 1580 nM (active); in experiment [12], > 2510 nM (inactive); in [13], > 10000 nM (inactive); in experiment [14], > 1580 nM (inactive). Also, the Ki in experiment [15] was 200 nM (active); in experiment [16] it was 251 nM (active); in experiment [17], > 3980 nM (inactive); in [18], > 5010 nM (inactive); in [19], > 6310 nM (inactive); in experiment [20] it was > 1580 nM (inactive). Besides, the results for the Ki in experiment [21] and in experiment [22] were > 2510 nM (inactive) and 631 nM (active), respectively.

The term IC50 denotes the concentration that gives 50% inhibition. The term Ki denotes a dissociation constant, usually derived from enzyme kinetics or from competition with a known ligand.
